What was measured:
Assay in all cases: radiometric filter-binding kinase assay, Kinase HotSpot
Settings in all cases: compound 0.5 µM; ATP 10 µM
[1] = target: TTK (human) (UniProt P33981)
[2] = target: CAMK2G (human) (UniProt Q13555)
[3] = target: MAPKAPK3 (human) (UniProt Q16644)
[4] = target: SIK2 (human) (UniProt Q9H0K1)
[5] = target: FGR (human) (UniProt P09769)
[6] = target: SRPK3 (human) (UniProt Q9UPE1)
[7] = target: TXK (human) (UniProt P42681)
[8] = target: PAK2 (human) (UniProt Q13177)
[9] = target: RPS6KA2 KD1 KD2 (human) (UniProt Q15349)
[10] = target: IRAK1 (human) (UniProt P51617)
[11] = target: ITK (human) (UniProt Q08881)
[12] = target: LTK (human) (UniProt P29376)
Chain of LTK (human) (P29376 whole entry, looked up): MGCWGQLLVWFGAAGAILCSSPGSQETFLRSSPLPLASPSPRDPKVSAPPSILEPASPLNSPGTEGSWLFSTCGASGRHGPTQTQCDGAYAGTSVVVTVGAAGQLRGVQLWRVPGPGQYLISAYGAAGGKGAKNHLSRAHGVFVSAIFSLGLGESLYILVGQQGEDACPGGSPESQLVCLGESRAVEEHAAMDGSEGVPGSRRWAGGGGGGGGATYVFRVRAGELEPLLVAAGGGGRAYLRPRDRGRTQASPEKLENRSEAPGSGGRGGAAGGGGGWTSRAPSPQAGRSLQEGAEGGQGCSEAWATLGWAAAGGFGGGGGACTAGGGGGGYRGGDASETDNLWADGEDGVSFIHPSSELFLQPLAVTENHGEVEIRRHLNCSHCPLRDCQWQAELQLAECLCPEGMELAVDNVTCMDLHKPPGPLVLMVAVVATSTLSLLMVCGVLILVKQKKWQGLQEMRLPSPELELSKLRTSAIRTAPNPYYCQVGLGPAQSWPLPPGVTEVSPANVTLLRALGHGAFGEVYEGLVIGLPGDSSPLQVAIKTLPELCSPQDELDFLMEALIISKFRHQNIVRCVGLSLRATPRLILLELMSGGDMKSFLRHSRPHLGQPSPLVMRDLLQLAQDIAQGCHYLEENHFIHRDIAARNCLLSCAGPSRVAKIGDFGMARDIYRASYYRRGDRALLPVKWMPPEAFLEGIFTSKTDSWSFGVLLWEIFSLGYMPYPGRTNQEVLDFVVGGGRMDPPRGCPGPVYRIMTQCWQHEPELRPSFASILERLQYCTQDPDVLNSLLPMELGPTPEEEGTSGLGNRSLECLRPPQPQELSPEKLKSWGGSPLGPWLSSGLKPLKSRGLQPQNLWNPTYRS

[13] = target: ABL2 (human) (UniProt P42684)
[14] = target: GSK3B (human) (UniProt P49841)
[15] = target: DAPK3 (human) (UniProt O43293)
Chain of DAPK3 (human) (O43293 whole entry, looked up): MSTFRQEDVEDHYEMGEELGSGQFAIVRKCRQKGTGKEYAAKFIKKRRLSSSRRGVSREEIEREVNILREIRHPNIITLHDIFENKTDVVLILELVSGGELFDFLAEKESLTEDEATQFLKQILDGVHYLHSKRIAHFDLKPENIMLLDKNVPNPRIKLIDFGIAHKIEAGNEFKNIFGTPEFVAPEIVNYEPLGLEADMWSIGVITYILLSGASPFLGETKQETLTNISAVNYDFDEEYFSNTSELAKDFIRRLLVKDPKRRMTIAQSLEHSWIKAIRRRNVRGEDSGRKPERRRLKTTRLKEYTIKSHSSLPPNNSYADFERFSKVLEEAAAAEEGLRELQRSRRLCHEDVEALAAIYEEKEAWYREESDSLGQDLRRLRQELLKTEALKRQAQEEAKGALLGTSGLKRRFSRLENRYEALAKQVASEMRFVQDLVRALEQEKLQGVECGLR

[16] = target: RPS6KA3 KD1 KD2 (human) (UniProt P51812)
[17] = target: CAMK2A (human) (UniProt Q9UQM7)
[18] = target: PRKCB2 (human) (UniProt P05771)
[19] = target: PNCK (human) (UniProt Q6P2M8)
[20] = target: PHKG1 (human) (UniProt Q16816)
Chain of PHKG1 (human) (Q16816 whole entry, looked up): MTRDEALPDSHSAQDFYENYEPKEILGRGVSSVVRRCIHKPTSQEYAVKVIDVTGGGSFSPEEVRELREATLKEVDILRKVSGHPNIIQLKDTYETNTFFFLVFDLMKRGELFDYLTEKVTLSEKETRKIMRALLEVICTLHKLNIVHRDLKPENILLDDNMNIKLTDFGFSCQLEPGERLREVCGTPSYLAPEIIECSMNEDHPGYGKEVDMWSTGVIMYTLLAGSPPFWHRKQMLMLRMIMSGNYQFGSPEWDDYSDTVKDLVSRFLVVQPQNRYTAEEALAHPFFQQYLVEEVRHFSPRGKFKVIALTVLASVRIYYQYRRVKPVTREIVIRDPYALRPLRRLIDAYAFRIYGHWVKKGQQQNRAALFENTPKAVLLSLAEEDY

[21] = target: AXL (human) (UniProt P30530)
[22] = target: PAK3 (human) (UniProt O75914)
[23] = target: PBK (human) (UniProt Q96KB5)
[24] = target: CDK3 CCNE1 (human) (UniProt Q00526+P24864)
[25] = target: PRKCZ (human) (UniProt Q05513)
[26] = target: ADRBK2 (human) (UniProt P35626)
[27] = target: MAPK9 (human) (UniProt P45984)
[28] = target: FER (human) (UniProt P16591)
Chain of FER (human) (P16591 whole entry, looked up): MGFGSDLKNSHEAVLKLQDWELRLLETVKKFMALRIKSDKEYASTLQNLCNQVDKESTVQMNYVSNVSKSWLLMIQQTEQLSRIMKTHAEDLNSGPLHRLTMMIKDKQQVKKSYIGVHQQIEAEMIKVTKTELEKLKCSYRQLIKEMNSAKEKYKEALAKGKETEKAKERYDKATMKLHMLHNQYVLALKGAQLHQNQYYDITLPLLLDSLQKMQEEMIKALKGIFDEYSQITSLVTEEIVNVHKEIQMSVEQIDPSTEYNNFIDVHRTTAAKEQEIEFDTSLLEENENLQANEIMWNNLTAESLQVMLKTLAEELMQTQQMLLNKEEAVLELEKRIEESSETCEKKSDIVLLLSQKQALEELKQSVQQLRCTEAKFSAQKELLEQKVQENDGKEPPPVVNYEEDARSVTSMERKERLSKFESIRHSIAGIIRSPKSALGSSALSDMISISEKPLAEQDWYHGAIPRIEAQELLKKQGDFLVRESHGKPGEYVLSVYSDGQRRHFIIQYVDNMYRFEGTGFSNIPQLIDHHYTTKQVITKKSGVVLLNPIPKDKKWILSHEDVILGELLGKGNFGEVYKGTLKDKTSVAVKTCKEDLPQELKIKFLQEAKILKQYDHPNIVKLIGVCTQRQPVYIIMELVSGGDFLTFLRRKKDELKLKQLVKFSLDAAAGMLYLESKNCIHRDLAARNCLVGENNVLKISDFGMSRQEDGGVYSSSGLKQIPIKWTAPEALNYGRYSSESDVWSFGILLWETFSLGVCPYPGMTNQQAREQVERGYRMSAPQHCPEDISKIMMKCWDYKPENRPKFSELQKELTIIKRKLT

[29] = target: GRK5 (human) (UniProt P34947)
[30] = target: NLK (human) (UniProt Q9UBE8)
[31] = target: MAPK14 (human) (UniProt Q16539)
[32] = target: SGK3 (human) (UniProt Q96BR1)
[33] = target: JAK1 JH1 catalytic (human) (UniProt P23458)
[34] = target: PDGFRA (human) (UniProt P16234)
[35] = target: ERBB4 (human) (UniProt Q15303)
[36] = target: CSNK1G1 (human) (UniProt Q9HCP0)
[37] = target: TGFBR1 (human) (UniProt P36897)
[38] = target: DDR2 (human) (UniProt Q16832)
[39] = target: CDC42BPB (human) (UniProt Q9Y5S2)
[40] = target: PRKG2 (human) (UniProt Q13237)
[41] = target: SRC (human) (UniProt P12931)
[42] = target: KIT (human) (UniProt P10721)

Chain of SRPK3 (human) (Q9UPE1 whole entry, looked up): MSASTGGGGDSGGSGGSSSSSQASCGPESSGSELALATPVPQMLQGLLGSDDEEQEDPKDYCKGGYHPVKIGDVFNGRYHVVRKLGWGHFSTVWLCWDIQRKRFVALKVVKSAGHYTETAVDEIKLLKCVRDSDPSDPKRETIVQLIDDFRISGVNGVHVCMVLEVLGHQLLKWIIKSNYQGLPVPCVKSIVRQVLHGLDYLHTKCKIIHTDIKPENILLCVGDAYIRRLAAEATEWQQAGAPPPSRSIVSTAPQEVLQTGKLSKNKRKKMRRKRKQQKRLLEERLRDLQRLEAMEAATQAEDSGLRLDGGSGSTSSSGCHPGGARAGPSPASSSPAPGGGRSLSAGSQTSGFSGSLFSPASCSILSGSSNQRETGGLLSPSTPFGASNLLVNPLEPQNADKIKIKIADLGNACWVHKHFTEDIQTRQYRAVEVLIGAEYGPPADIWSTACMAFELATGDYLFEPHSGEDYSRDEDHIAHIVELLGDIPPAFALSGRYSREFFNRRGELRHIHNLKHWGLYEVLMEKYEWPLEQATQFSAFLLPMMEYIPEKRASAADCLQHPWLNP
Chain of SIK2 (human) (Q9H0K1 whole entry, looked up): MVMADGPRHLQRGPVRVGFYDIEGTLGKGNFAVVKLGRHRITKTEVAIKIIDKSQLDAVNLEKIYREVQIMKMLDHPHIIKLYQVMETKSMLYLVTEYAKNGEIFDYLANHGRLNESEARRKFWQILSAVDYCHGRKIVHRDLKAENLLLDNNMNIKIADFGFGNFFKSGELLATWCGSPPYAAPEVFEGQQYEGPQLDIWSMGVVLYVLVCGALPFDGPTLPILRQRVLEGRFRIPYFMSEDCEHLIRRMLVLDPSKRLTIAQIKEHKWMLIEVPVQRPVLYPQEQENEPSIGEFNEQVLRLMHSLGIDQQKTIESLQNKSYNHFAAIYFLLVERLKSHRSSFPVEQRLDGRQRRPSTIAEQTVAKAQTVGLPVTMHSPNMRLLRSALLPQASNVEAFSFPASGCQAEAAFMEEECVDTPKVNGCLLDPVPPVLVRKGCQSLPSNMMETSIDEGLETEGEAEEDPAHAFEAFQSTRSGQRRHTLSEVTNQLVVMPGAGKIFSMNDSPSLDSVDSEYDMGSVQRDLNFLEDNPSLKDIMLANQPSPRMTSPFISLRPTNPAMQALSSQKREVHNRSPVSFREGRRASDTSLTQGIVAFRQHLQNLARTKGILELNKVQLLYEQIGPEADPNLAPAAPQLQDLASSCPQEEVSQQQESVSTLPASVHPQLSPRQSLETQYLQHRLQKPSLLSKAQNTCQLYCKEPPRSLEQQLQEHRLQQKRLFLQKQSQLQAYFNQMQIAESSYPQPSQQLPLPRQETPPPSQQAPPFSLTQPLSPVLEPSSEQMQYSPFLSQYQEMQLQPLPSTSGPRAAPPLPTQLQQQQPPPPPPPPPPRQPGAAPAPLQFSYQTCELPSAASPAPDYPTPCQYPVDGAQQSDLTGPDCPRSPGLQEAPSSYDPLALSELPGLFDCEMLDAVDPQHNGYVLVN
Chain of TTK (human) (P33981 whole entry, looked up): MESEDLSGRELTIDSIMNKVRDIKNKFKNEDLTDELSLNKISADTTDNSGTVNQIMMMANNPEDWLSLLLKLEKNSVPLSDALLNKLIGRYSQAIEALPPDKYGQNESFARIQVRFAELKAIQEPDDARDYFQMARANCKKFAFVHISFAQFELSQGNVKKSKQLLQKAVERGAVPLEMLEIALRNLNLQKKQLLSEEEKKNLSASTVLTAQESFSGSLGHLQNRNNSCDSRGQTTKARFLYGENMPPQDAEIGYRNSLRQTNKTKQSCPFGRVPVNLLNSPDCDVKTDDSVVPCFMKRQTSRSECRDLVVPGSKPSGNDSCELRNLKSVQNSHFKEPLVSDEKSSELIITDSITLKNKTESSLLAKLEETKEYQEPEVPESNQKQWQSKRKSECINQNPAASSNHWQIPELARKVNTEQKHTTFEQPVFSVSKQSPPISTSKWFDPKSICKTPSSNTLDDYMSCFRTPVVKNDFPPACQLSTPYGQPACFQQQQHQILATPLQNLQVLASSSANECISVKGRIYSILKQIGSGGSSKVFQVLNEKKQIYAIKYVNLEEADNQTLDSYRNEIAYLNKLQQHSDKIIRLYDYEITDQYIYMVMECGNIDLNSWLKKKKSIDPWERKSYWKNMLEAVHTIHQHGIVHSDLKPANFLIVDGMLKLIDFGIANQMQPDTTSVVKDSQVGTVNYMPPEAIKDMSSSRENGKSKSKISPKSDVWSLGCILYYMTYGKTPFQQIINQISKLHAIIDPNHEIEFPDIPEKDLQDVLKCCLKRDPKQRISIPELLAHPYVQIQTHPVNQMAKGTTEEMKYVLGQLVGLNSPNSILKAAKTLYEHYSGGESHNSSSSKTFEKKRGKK

Compound: COc1cc2ncnc(Nc3ccc(F)c(Cl)c3)c2cc1OCCCN1CCOCC1
- residual activity [1]: 96.3%
- residual activity [2]: 128%
- residual activity [3]: 99.6%
- residual activity [4]: 49.3%
- residual activity [5]: 70.1%
- residual activity [6]: 103%
- residual activity [7]: 83.2%
- residual activity [8]: 100%
- residual activity [9]: 82.3%
- residual activity [10]: 57.6%
- residual activity [11]: 99.9%
- residual activity [12]: 90.4%
- residual activity [13]: 72%
- residual activity [14]: 100%
- residual activity [15]: 95.7%
- residual activity [16]: 100%
- residual activity [17]: 94.4%
- residual activity [18]: 100%
- residual activity [19]: 108%
- residual activity [20]: 68.8%
- residual activity [21]: 88.8%
- residual activity [22]: 106%
- residual activity [23]: 102%
- residual activity [24]: 95%
- residual activity [25]: 92.5%
- residual activity [26]: 97.9%
- residual activity [27]: 95.5%
- residual activity [28]: 94.1%
- residual activity [29]: 94.9%
- residual activity [30]: 91.1%
- residual activity [31]: 74.6%
- residual activity [32]: 98.3%
- residual activity [33]: 102%
- residual activity [34]: 97%
- residual activity [35]: 24.2%
- residual activity [36]: 99.5%
- residual activity [37]: 99.6%
- residual activity [38]: 117%

Compound: C#Cc1cccc(Nc2ncnc3cc(OCCOC)c(OCCOC)cc23)c1
- residual activity [1]: 91.8%
- residual activity [2]: 115%
- residual activity [3]: 98.1%
- residual activity [39]: 98.5%
- residual activity [6]: 101%
- residual activity [8]: 99.1%
- residual activity [9]: 101%
- residual activity [10]: 95.9%
- residual activity [11]: 106%
- residual activity [12]: 66.3%
- residual activity [14]: 102%
- residual activity [15]: 95.4%
- residual activity [16]: 100%
- residual activity [17]: 97.6%
- residual activity [18]: 98.6%
- residual activity [40]: 107%
- residual activity [19]: 103%
- residual activity [20]: 93.2%
- residual activity [41]: 77.4%
- residual activity [22]: 106%
- residual activity [23]: 104%
- residual activity [24]: 95.6%
- residual activity [25]: 92.3%
- residual activity [26]: 94.8%
- residual activity [28]: 94%
- residual activity [29]: 100%
- residual activity [30]: 103%
- residual activity [31]: 95.3%
- residual activity [32]: 100%
- residual activity [33]: 91.2%
- residual activity [34]: 84.4%
- residual activity [35]: 61.4%
- residual activity [36]: 104%
- residual activity [37]: 99.1%

Compound: Clc1ccc(Nc2nnc(Cc3ccncc3)c3ccccc23)cc1
- residual activity [1]: 108%
- residual activity [2]: 115%
- residual activity [3]: 98.9%
- residual activity [39]: 99.5%
- residual activity [4]: 97.9%
- residual activity [5]: 96.8%
- residual activity [6]: 104%
- residual activity [7]: 110%
- residual activity [8]: 101%
- residual activity [9]: 97.5%
- residual activity [10]: 94.1%
- residual activity [11]: 103%
- residual activity [12]: 105%
- residual activity [13]: 101%
- residual activity [14]: 104%
- residual activity [15]: 107%
- residual activity [16]: 101%
- residual activity [17]: 93.2%
- residual activity [18]: 97.2%
- residual activity [40]: 101%
- residual activity [19]: 103%
- residual activity [20]: 94.2%
- residual activity [21]: 98.3%
- residual activity [41]: 104%
- residual activity [22]: 107%
- residual activity [23]: 108%
- residual activity [24]: 92.7%
- residual activity [25]: 69.5%
- residual activity [26]: 92.9%
- residual activity [27]: 97.5%
- residual activity [28]: 91.4%
- residual activity [29]: 110%
- residual activity [30]: 99.3%
- residual activity [31]: 98.2%
- residual activity [32]: 99.2%
- residual activity [33]: 107%
- residual activity [34]: 33.3%
- residual activity [35]: 104%
- residual activity [36]: 103%
- residual activity [37]: 96.8%
- residual activity [38]: 97.1%

Compound: Nc1nc(Nc2ccc(S(N)(=O)=O)cc2)nn1C(=O)c1c(F)cccc1F
- residual activity [1]: 77.5%
- residual activity [2]: 104%
- residual activity [3]: 98%
- residual activity [39]: 96%
- residual activity [4]: 84.1%
- residual activity [5]: 63.5%
- residual activity [6]: 86.2%
- residual activity [7]: 95.8%
- residual activity [9]: 42.2%
- residual activity [10]: 89.8%
- residual activity [11]: 105%
- residual activity [12]: 85.8%
- residual activity [13]: 53.9%
- residual activity [14]: 22%
- residual activity [15]: 99.4%
- residual activity [16]: 38.6%
- residual activity [17]: 104%
- residual activity [18]: 90.5%
- residual activity [40]: 92.2%
- residual activity [19]: 107%
- residual activity [20]: 102%
- residual activity [21]: 94.2%
- residual activity [41]: 76.3%
- residual activity [23]: 92.1%
- residual activity [24]: 32.4%
- residual activity [25]: 99.9%
- residual activity [42]: 81.7%
- residual activity [26]: 87.2%
- residual activity [27]: 93.7%
- residual activity [28]: 82%
- residual activity [29]: 85.9%
- residual activity [30]: 86%
- residual activity [31]: 97.8%
- residual activity [32]: 114%
- residual activity [33]: 5.19%
- residual activity [34]: 82%
- residual activity [35]: 110%
- residual activity [37]: 104%
- residual activity [38]: 113%

Compound: O=C1Nc2ccccc2/C1=C\c1c(Cl)[nH]c2ccccc12
- residual activity [1]: 101%
- residual activity [2]: 103%
- residual activity [3]: 91.3%
- residual activity [39]: 102%
- residual activity [4]: 103%
- residual activity [5]: 90.5%
- residual activity [6]: 97.1%
- residual activity [7]: 99.6%
- residual activity [9]: 81.1%
- residual activity [10]: 89.5%
- residual activity [11]: 104%
- residual activity [12]: 95.1%
- residual activity [13]: 91.4%
- residual activity [14]: 105%
- residual activity [15]: 91.2%
- residual activity [16]: 82.9%
- residual activity [17]: 103%
- residual activity [18]: 92.6%
- residual activity [40]: 71.7%
- residual activity [19]: 92.9%
- residual activity [20]: 85.4%
- residual activity [21]: 97.8%
- residual activity [41]: 78.5%
- residual activity [22]: 98.8%
- residual activity [23]: 102%
- residual activity [24]: 94.1%
- residual activity [25]: 103%
- residual activity [42]: 90.2%
- residual activity [26]: 90.1%
- residual activity [27]: 101%
- residual activity [28]: 91.8%
- residual activity [29]: 109%
- residual activity [30]: 107%
- residual activity [31]: 101%
- residual activity [32]: 102%
- residual activity [33]: 96.6%
- residual activity [34]: 88.7%
- residual activity [35]: 103%
- residual activity [36]: 99.3%
- residual activity [37]: 94.4%
- residual activity [38]: 92.7%
